This is an account of results in patent US10414740B2, “Glutaminase inhibitors and method of use” (Agios Pharmaceuticals, Inc., priority 2012, dated 2019).

The assay concerns the target T1, glutaminase (GAC) (Homo sapiens, UniProt O94925).
T1 sequence (O94925 55-598 isoform O94925-3 limits assumed): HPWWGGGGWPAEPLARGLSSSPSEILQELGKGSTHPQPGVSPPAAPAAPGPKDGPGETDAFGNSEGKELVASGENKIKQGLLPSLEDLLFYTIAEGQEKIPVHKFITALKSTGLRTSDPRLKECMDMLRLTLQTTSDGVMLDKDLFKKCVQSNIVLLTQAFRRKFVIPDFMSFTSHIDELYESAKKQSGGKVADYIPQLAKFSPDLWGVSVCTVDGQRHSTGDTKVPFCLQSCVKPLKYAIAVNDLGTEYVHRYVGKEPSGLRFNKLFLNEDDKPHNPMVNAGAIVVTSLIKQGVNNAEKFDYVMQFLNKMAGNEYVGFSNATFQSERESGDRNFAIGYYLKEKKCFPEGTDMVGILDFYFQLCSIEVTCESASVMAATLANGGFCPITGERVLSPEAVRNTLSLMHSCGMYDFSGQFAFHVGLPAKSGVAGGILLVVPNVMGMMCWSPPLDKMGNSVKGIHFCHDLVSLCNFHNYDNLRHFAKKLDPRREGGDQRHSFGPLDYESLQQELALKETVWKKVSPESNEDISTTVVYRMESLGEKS
Nature of the assay: glutaminase coupled endpoint assay (Example A). It is filed as biochemical. As to conditions: inhibition of glutaminase; IC50 tested in an assay of Example A or Example B. On the procedure: In this example, the enzymatic activity of glutaminase is measured through a coupled endpoint assay. […] The glutamate produced is converted to 2-OG by a kinetic excess of glutamate dehydrogenase. […] However, a kinetic excess of the third coupling enzyme, diaphorase, recycles NAD from NADH to keep the NAD concentration constant during the timecourse of the assay. Diaphorase, also supplied in kinetic excess, oxidizes NADH produced by GDH back to NAD with the concomitant reduction of rezasurin to the highly fluorescent resorufin. […] A reduction in the signal indicates inhibition of some component of the coupled enzyme system. Prospective hits are counterscreened against GDH/diaphorase alone to remove hits to the coupling enzyme system in a second assay.
2. […] Add 1 μl a compound in 100% DMSO 2. Add 40 μl of Enzyme Mix and incubate for 60 minute at room temperature 3. Add 10 μl of Substrate Mix to start reaction 4.
Take `O=C(Nc1nnc(CCSCCc2nnc(NC(=O)Oc3ccccc3)s2)s1)Oc1ccccc1` [Compound 1, Diphenyl (5,5′-(thiobis(ethane-2,1-diyl))bis(1,3,4-thiadiazole-5,2-diyl))dicarbamate]: the IC50 (as a rule, the concentration needed to halve the response being measured) lay within 1 to 10 µM.

On to `O=C(Cc1ccccc1)Nc1nnc(CCS(=O)(=O)CCc2nnc(NC(=O)Cc3ccccc3)s2)s1` [Compound 4, N,N′-(5,5′-(sulfonylbis(ethane-2,1-diyl))bis(1,3,4-thiadiazole-5,2-diyl))bis(2-phenylacetamide)], for which the IC50 was less than 0.1 µM.

In turn, `O=C(Cc1ccccc1)Nc1nnc(CCCSCc2nnc(NC(=O)Cc3ccccc3)s2)s1` [Compound 6, 2-Phenyl-N-(5-(3-(((5-(2-phenylacetamido)-1,3,4-thiadiazol-2-yl)methyl)thio)propyl)-1,3,4-thiadiazol-2-yl)acetamide] returned an IC50 of 0.5 to 1 µM.

The compound `O=C(Cc1ccccc1)Nc1nnc(CC[S+]([O-])CCc2nnc(NC(=O)Cc3ccccc3)s2)s1` [Compound 7, N,N′-(5,5′-(sulfinylbis(ethane-2,1-diyl))bis(1,3,4-thiadiazole-5,2-diyl))bis(2-phenyl Acetamide)] registered an IC50 of 0.1 to 0.5 µM.

In turn, `O=C(Nc1nnc(CCSCCc2nnc(NC(=O)OC3CCCCC3)s2)s1)OC1CCCCC1` [Compound 8, Dicyclohexyl (5,5′-(thiobis(ethane-2,1-diyl))bis(1,3,4-thiadiazole-5,2-diyl))dicarbamate] displayed an IC50 of 0.5 to 1 µM.

With `c1ccc(CCNc2nnc(CCSCCc3nnc(NCCc4ccccc4)s3)s2)cc1` [Compound 9, 5,5′-(thiobis(ethane-2,1-diyl))bis(N-phenethyl-1,3,4-thiadiazol-2-amine)], the IC50 was 1 to 10 µM.

`O=C(Cc1cccnc1)Nc1nnc(CCCCCc2nnc(NC(=O)Cc3cccnc3)s2)s1` [Compound 10, N,N′-(5,5′-(pentane-1,5-diyl)bis(1,3,4-thiadiazole-5,2-diyl))bis(2-(pyridin-3-yl)acetamide)] showed a half-maximal inhibitory concentration (IC50) of 0.1 to 0.5 µM.

In the case of `O=C(Cc1ccccn1)Nc1nnc(CCCCCc2nnc(NC(=O)Cc3ccccn3)s2)s1` [Compound 11, N,N′-(5,5′-(pentane-1,5-diyl)bis(1,3,4-thiadiazole-5,2-diyl))bis(2-(pyridin-2-yl)acetamide)], the IC50 lay in the range of 0.1 to 0.5 µM.

`O=C(Cc1ccccc1)Nc1nnc(CCCCCCc2nnc(NC(=O)Cc3ccccc3)s2)s1` [Compound 12, N,N′-(5,5′-(hexane-1,6-diyl)bis(1,3,4-thiadiazole-5,2-diyl))bis(2-phenylacetamide)] registered an IC50 of 1 to 10 µM.

For `O=C(Cc1ccccn1)Nc1nnc(CCS(=O)(=O)CCc2nnc(NC(=O)Cc3ccccn3)s2)s1` [Compound 13, N,N′-(5,5′-(sulfonylbis(ethane-2,1-diyl))bis(1,3,4-thiadiazole-5,2-diyl))bis(2-(pyridin-2-yl)acetamide)], the IC50 is less than 0.1 µM.

`O=C(Cc1cccnc1)Nc1nnc(CCS(=O)(=O)CCc2nnc(NC(=O)Cc3cccnc3)s2)s1` [Compound 14, N,N′-(5,5′-(sulfonylbis(ethane-2,1-diyl))bis(1,3,4-thiadiazole-5,2-diyl))bis(2-(pyridin-3-yl)acetamide)] displayed an IC50 of less than 0.1 µM.

Take `CC(C)(C)OC(=O)Nc1nnc(CCS(=O)(=O)CCc2nnc(NC(=O)OC(C)(C)C)s2)s1` [Compound 15, Di-tert-butyl (5,5′-(sulfonylbis(ethane-2,1-diyl))bis(1,3,4-thiadiazole-5,2-diyl))dicarbamate]: the IC50 was in the range of 0.1 to 0.5 µM.

The compound `O=C(Cc1ccccn1)Nc1nnc(CCCCCCc2nnc(NC(=O)Cc3ccccn3)s2)s1` [Compound 16, N,N′-(5,5′-(hexane-1,6-diyl)bis(1,3,4-thiadiazole-5,2-diyl))bis(2-(pyridin-2-yl)acetamide)] registered an IC50 of 1 to 10 µM.

With `O=C(Cc1ccccn1)Nc1nnc(CC[S+]([O-])CCc2nnc(NC(=O)Cc3ccccn3)s2)s1` [Compound 17, N,N′-(5,5′-(sulfinylbis(ethane-2,1-diyl))bis(1,3,4-thiadiazole-5,2-diyl))bis(2-(pyridin-2-yl)acetamide)], the 50% inhibitory concentration (IC50) was in the range of 0.1 to 0.5 µM.

As to `CN(C(=O)Nc1nnc(CCSCCc2nnc(NC(=O)N(C)c3ccccc3)s2)s1)c1ccccc1` [Compound 18, 1,1′-(5,5′-(thiobis(ethane-2,1-diyl))bis(1,3,4-thiadiazole-5,2-diyl))bis(3-methyl-3-phenylurea)], the IC50 lay in the range of 1 to 10 µM.

For the compound `O=C(Nc1nnc(CCS(=O)(=O)CCc2nnc(NC(=O)OCc3ccccc3)s2)s1)OCc1ccccc1` [Compound 19, Dibenzyl (5,5′-(sulfonylbis(ethane-2,1-diyl))bis(1,3,4-thiadiazole-5,2-diyl))dicarbamate], the IC50 was less than 0.1 µM.

The compound `O=C(CCc1ccccc1)Nc1nnc(CCCCCc2nnc(NC(=O)CCc3ccccc3)s2)s1` [Compound 20, N,N′-(5,5′-(pentane-1,5-diyl)bis(1,3,4-thiadiazole-5,2-diyl))bis(3-phenylpropanamide)] returned a 50% inhibitory concentration (IC50) of 1 to 10 µM.

Turning to `O=C(CCc1ccccc1)Nc1nnc(CCS(=O)(=O)CCc2nnc(NC(=O)CCc3ccccc3)s2)s1` [Compound 21, N,N′-(5,5′-(2,2′-sulfonylbis(ethane-2,1-diyl))bis(1,3,4-thiadiazole-5,2-diyl))bis(3-phenylpropanamide)], the IC50 was less than 0.1 µM.

`CC(C)COC(=O)Nc1nnc(CCS(=O)(=O)CCc2nnc(NC(=O)OCC(C)C)s2)s1` [Compound 22, Diisobutyl (5,5′-(sulfonylbis(ethane-2,1-diyl))bis(1,3,4-thiadiazole-5,2-diyl))dicarbamate] yielded an IC50 of 0.1 to 0.5 µM.

With `CC(C)OC(=O)Nc1nnc(CCS(=O)(=O)CCc2nnc(NC(=O)OC(C)C)s2)s1` [Compound 23, Diisopropyl (5,5′-(sulfonylbis(ethane-2,1-diyl))bis(1,3,4-thiadiazole-5,2-diyl))dicarbamate], the IC50 was 0.5 to 1 µM.

As to `O=C(Cc1ccccc1)Nc1nnc(CC[S+]([O-])CCC(=O)Nc2nnc(Cc3ccccc3)s2)s1` (stereo not shown) [Compound 24], the IC50 lay in the range of 1 to 10 µM.

`O=C(Cc1ccccn1)Nc1nnc(CC/C=C/CCc2nnc(NC(=O)Cc3ccccn3)s2)s1` [Compound 25]: the half-maximal inhibitory concentration (IC50) fell in the range of 1 to 10 µM.

Consider `O=C(Cc1cccnc1)Nc1nnc(CCCc2nnc(NC(=O)Cc3cccnc3)s2)s1` [Compound 26, N,N′-(5,5′-(propane-1,3-diyl)bis(1,3,4-thiadiazole-5,2-diyl))bis(2-(pyridin-3-yl)acetamide)], for which the IC50 was in the range of 0.1 to 0.5 µM.

In turn, `O=C(Cc1cccnc1)Nc1nnc(C/C=C/Cc2nnc(NC(=O)Cc3cccnc3)s2)s1` [Compound 27, (E)-N,N′-(5,5′-(but-2-ene-1,4-diyl)bis(1,3,4-thiadiazole-5,2-diyl))bis(2-(pyridin-3-yl)acetamide)] displayed a half-maximal inhibitory concentration (IC50) of less than 0.1 µM.

Take `O=C(Cc1cccnc1)Nc1nnc(CCCCc2nnc(NC(=O)Cc3cccnc3)s2)s1` [Compound 28, N,N′-(5,5′-(butane-1,4-diyl)bis(1,3,4-thiadiazole-5,2-diyl))bis(2-(pyridin-3-yl)acetamide)]: the IC50 is less than 0.1 µM.

`NCCOc1ccc(CC(=O)Nc2nnc(CCS(=O)(=O)CCc3nnc(NC(=O)Cc4ccccc4)s3)s2)cc1` [Compound 29, 2-(4-(2-aminoethoxy)phenyl)-N-(5-(2-((2-(5-(2-phenylacetamido)-1,3,4-thiadiazol-2-yl)ethyl)sulfonyl)ethyl)-1,3,4-thiadiazol-2-yl)acetamide] displayed an IC50 of less than 0.1 µM.

`COc1ccc(CC(=O)Nc2nnc(CCS(=O)(=O)CCc3nnc(NC(=O)Cc4ccc(OC)c(OC)c4)s3)s2)cc1OC` [Compound 30, N,N′-(5,5′-(2,2′-sulfonylbis(ethane-2,1-diyl))bis(1,3,4-thiadiazole-5,2-diyl))bis(2-(3,4-dimethoxyphenyl)acetamide)] displayed an IC50 of less than 0.1 µM.

In turn, `COc1ccc(CC(=O)Nc2nnc(CCS(=O)(=O)CCc3nnc(NC(=O)Cc4ccc(OC)cc4)s3)s2)cc1` [Compound 31, N,N′-(5,5′-(2,2′-sulfonylbis(ethane-2,1-diyl))bis(1,3,4-thiadiazole-5,2-diyl))bis(2-(4-methoxyphenyl)acetamide)] displayed an IC50 of less than 0.1 µM.

In the case of `O=C(Cc1ccccc1)Nc1nnc(CSCc2nnc(NC(=O)Cc3ccccc3)s2)s1` [Compound 32], the IC50 lay in the range of 1 to 10 µM.

On to `O=C(CC1CCCCO1)Nc1nnc(CCS(=O)(=O)CCc2nnc(NC(=O)CC3CCCCO3)s2)s1` (stereo not shown) [Compound 33, N,N′-(5,5′-(2,2′-sulfonylbis(ethane-2,1-diyl))bis(1,3,4-thiadiazole-5,2-diyl))bis(2-(tetrahydro-2H-pyran-2-yl)acetamide)], for which the IC50 is 0.1 to 0.5 µM.

In the case of `Cc1nc2ccc(C(=O)Nc3nnc(CCSCCc4nnc(NC(=O)c5ccc6nc(C)[nH]c6c5)s4)s3)cc2[nH]1` [Compound 34, N,N′-(5,5′-(2,2′-thiobis(ethane-2,1-diyl))bis(1,3,4-thiadiazole-5,2-diyl))bis(2-methyl-1H-benzo[d]imidazole-6-carboxamide)], the IC50 is less than 0.1 µM.
